According to patent US20220288156A1, “TREATMENT” (QUEEN MARY UNIVERSITY OF LONDON, priority 2019, published 2022):

System: AngII-stimulated mouse cardiomyocytes
Test: RNA-Seq of AngII-stimulated cardiomyocytes treated with ldCil, comparison with human heart data
Format: cell-based
Description: Primary mouse cardiomyocytes were isolated from the whole hearts of 1-3-day old C57/BL6 wild-type mice. Hearts were dissected and removed from the thoracic cavity, mechanically minced with scissors and digested in cardiomyocyte isolation enzyme 1 (200 μl per heart) and cardiomyocyte isolation enzyme 2 (10 μl per heart) (Pierce primary cardiomyocyte isolation kit, Thermo Scientific). Digested hearts were then homogenised by gently pipetting up to 30 times with a 1 ml pipette, and the resulting single cell suspension added to complete DMEM solution (DMEM, 10% FBS, 1% Penicillin Streptomycin stock solution). After combination of all cell suspensions, the total number of viable cells were counted, and plated at approximately 1 million cells per single well of a 6 well plate. The following day, wells were washed with PBS (without calcium and magnesium), and complete cardiomyocyte growth medium added. Complete cardiomyocyte medium thereafter was replaced every other day.
Following 5 days culture at 37° C., 5% CO2, primary mouse cardiomyocytes were serum starved for 24 h in a 0.5 FBS-DMEM media. On day 6 cells were washed and refed with complete cardiomyocyte growth medium plus or minus 1 μM angiotensin II (Alfa Aesar), and this was repeated on day 7. In tandem to angiotensin II treatment, cells were either treated with vehicle or low dose Cilengitide (20 nM) (Bachem). On 8-day cardiomyocytes were lysed for RNA analysis.
Medium was removed and cells were washed 3 times in PBS. 350 μl RLT lysis buffer (Qiagen) (plus 1:100 beta-mercaptoethanol) was added to each well to disrupt and lyse the cells. Cell lysate samples were then combined with an equal volume of 70% ethanol, before RNA was extracted according to the manufacturer's instructions, before being stored at −80° C. until required. For whole hearts, less than 100 mg of tissue was lysed with 700 μl RLT lysis buffer (Qiagen) (supplemented 1:100 beta-mercaptoethanol) in a QIAshredder (Qiagen) for 10 min. Tissues were then processed as above with the RNeasy mini kit.
RNA-Seq was performed by Barts and the London Genome Centre on the Illumina NextSeq 500 platform, generating on average ˜15-17 million paired-end reads of 76 bp in length per sample. After quality check using FastQC, raw reads were mapped to the mouse genome (mm10, Genome Reference Consortium GRCm38) in the strand-specific mode using HISAT2 (65). Number of uniquely aligned reads (q>10) to the exonic region of each gene were counted using HTSeq (66) based on the GenCode annotation version M16 (Ensembl v91). Only genes that achieved at least one read count per million reads (cpm) in at least four samples (i.e., number of samples per group) were kept. Conditional quantile normalisation (cqn) was then performed accounting for gene length and GC content, and a log2 transformed reads per kilobase of transcript per million mapped reads RPKM expression matrix was subsequently generated. Differential expression analysis was performed using the ‘limma’ R package (67). Gene-set enrichment analysis (GSEA) was performed using the GSEA software (68) to identify dysregulated canonical pathways curated in the Molecular Signatures Database (MSigDB-C2-CP v6.2) (FDR q<0.1). RNA-Seq data have been deposited in Gene Expression Omnibus (GEO) under the accession number GSE127854.
The GSE57338 microarray dataset of a total of 313 individuals which included 95 ischemic patients, 82 dilated cardiomyopathy patients, and 136 individuals with non-failing hearts, was downloaded from GEO. Differential expression analysis was performed using the ‘limma’ R package comparing ischemic vs non-failing and dilated vs non-failing. GSEA was performed using the GSEA software (PMID:16199517) to identify the dysregulated canonical pathways as described above. The overlap of differentially expressed gene and pathways (p<0.05) was then examined in relation to the mouse cardiomyocyte data. […]

[1] = AngII vs AngII+ldCil, human failing vs non-failing
[2] = human idiopathic dilated cardiomyopathy vs non-failing
[3] = human ischemic heart vs non-failing

SMILES: CC(C)[C@H]1C(=O)N[C@@H](CCCN=C(N)N)C(=O)NCC(=O)N[C@@H](CC(=O)O)C(=O)N[C@H](Cc2ccccc2)C(=O)N1C [Cilengitide, c(f*VRGD)]
- transcriptomic alterations induced by AngII (1 μM AngII plus ldCil 20 nM): back to control treated cardiomyocyte levels
- PI3K and Akt signalling pathways downregulated by AngII (AngII plus ldCil): fold change restoration of both these pathways are most highly expressed
- TCA and oxidative stress pathways increased by AngII (AngII plus ldCil): restored
- downregulated genes concordant with human failing heart restored to non-failing human heart levels [1]: 13 genes
- upregulated genes concordant with human failing heart restored to non-failing human heart levels [1]: 8 genes
- AngII-induced differential expression of pathways (GSEA) (AngII+ldCil compared to control, FDR q>0.1): no longer significant
- concordantly downregulated pathways restored to non-failing human heart profiles [2]: 8 pathways
- concordantly upregulated pathways restored to non-failing human heart profiles [2]: 4 pathways
- concordant downregulated pathways restored [3]: 5 pathways
- concordant pathways restored [3]: 6 pathways
- concordant upregulated pathways restored [3]: 1 pathways
